Tests used:
primary rat hepatocytes = assay: Hepatic metabolism in primary hepatocytes; settings: 3 h
[1] = Liver distribution in Wistar rats; settings: liver; for increase in Cmax on co-administration vs single treatment / exposure (AUC) of metabolite as share of the exposure of BBR / AUC ± SE / Cmax / Tmax / increase in AUC on co-administration vs single treatment: Wistar rats; for AUC ± SE / Cmax / half-life / Tmax: n = 5; for Cmax / half-life / Tmax: male, Wistar, rat, po; for Cmax: Cmax ± SE; for half-life: T1/2, Wistar rats
GK rats [2] = assay: Oral glucose tolerance test (OGTT) in GK rats on day 28; format: in vivo, rat; settings: after 4 weeks of treatment, glucose 2 g/kg oral
Description: (§1) Four-week-old male GK rats were fed a high-fat diet, and age-matched non-diabetic Wistar rats were fed standard chow as the control group. Under these dietary conditions, blood glucose was estimated each week for 7 weeks in 12-h fasted rats using a portable glucometer (One Touch Sure Step Meter, Johnson & Johnson, United States) by drawing the blood from the tail vein. GK rats with fasting blood glucose levels (FBG) above 16.7 mM were considered as diabetic rats, and only uniformly diabetic rats were used in this study. […] All the drugs were suspended in 0.5% carboxymethylcellulose sodium (CMC-Na) solution for oral gavage (10 ml/kg) once per day (at 9:00) for 6 weeks. Simultaneously, the Wistar and vehicle groups received vehicle over the treatment period. Food consumption and body weight were measured every week throughout the experimental periods. Non-fasting blood glucose (NFBG) levels were determined by collecting blood samples from the tail vein (at 9:00), and FBG levels were determined after a 6-h fast (at 15:00) on days 0, 7, 14, 21, and 42. On day 28, an oral glucose tolerance test (OGTT) was performed after an overnight fast. […] On day 42, the rats were anesthetized with urethane (1.4 g/kg, dissolved in saline) after an overnight fast and were sacrificed to collect the liver, kidney, heart, and spleen. The organs were weighed after washing with saline and drying to calculate the organ coefficient, namely, the ratio between the weight of organs and the body in each rat.

GK rats [3] = assay: NFBG and FBG levels in GK rats, 6-week oral treatment; format: in vivo, rat; settings: during 6-week treatment, TB-2 33.3, BBR 66.7, TB-2+BBR 100, metformin 200 mg/kg/day
Description: as §1

[4] = Body weight, food intake, organ coefficients and side effects in GK rats; format: in vivo, rat; settings: day 42
Description: as §1

[5] = single oral BBR 66.7 mg/kg alone
[6] = single oral BBR+TB-2 (66.7+33.3 mg/kg)
[7] = single treatment (On TB-2 treatments)
[8] = 33.3 mg/kg, single oral BBR+TB-2 (66.7+33.3 mg/kg)
[9] = 66.7 mg/kg, single oral BBR 66.7 mg/kg alone

## Nn1nnc2ccccc21 [ABT, 1-aminobenzotriazole]
Primary rat hepatocytes; BBR 1 μM, ABT 1 mM, TB-2 0.1 to 30 μM
  effect on BBR metabolism and the generation of M2–M5: completely abrogated

## COc1c(O)ccc2cc3[n+](cc12)CCc1cc2c(cc1-3)OCO2 [M2, Thalifendine]
[1]
  increase in Cmax on co-administration vs single treatment: 117%
[1]; TB-2+BBR treatments
  exposure (AUC) of metabolite as share of the exposure of BBR: 144%
[1]; [5]
  AUC ± SE: 5935.8 ± 164.9 h ∗ ng/g
[1]; [6]
  AUC ± SE: 6651.2 ± 469.0 h ∗ ng/g
[1]; [7]
  exposure (AUC) of metabolite as share of the exposure of BBR: 182%
[1]; [8]
  Cmax: 1660 ± 255 ng/g
  half-life: 5 h
  Tmax: 2 h
[1]; [9]
  Cmax: 766 ± 54.3 ng/g
  half-life: 6.8 h
  Tmax: 4 h

## COc1ccc2cc3[n+](cc2c1OC)CCc1cc(O)c(O)cc1-3 [M3, demethyleneberberine]
[1]
  increase in AUC on co-administration vs single treatment: 144%
  increase in Cmax on co-administration vs single treatment: 174%
[1]; TB-2+BBR treatments
  exposure (AUC) of metabolite as share of the exposure of BBR: 12%
[1]; [5]
  AUC ± SE: 234.5 ± 29.3 h ∗ ng/g
[1]; [6]
  AUC ± SE: 572.9 ± 34.7^∗∗∗ h ∗ ng/g
[1]; [7]
  exposure (AUC) of metabolite as share of the exposure of BBR: 7%
[1]; [8]
  Cmax: 106 ± 18.2 ng/g
  half-life: 6.2 h
  Tmax: 2 h
[1]; [9]
  Cmax: 38.8 ± 5.6 ng/g
  half-life: 18.5 h
  Tmax: 2 h

## COc1cc2c(cc1O)CC[n+]1cc3c(OC)c(OC)ccc3cc1-2 [M4, jatrorrhizine]
[1]
  increase in AUC on co-administration vs single treatment: 31%
  increase in Cmax on co-administration vs single treatment: 156%
[1]; TB-2+BBR treatments
  exposure (AUC) of metabolite as share of the exposure of BBR: 15%
[1]; [5]
  AUC ± SE: 527.5 ± 25.0 h ∗ ng/g
[1]; [6]
  AUC ± SE: 690.8 ± 59.6^∗ h ∗ ng/g
[1]; [7]
  exposure (AUC) of metabolite as share of the exposure of BBR: 16%
[1]; [8]
  Cmax: 200 ± 33.7 ng/g
  half-life: 7 h
  Tmax: 2 h
[1]; [9]
  Cmax: 78.2 ± 10.7 ng/g
  half-life: 9.7 h
  Tmax: 2 h

## COc1cc2c(cc1O)-c1cc3ccc(OC)c(OC)c3c[n+]1CC2 [M5, columbamine]
[1]
  increase in AUC on co-administration vs single treatment: 35%
[1]; TB-2+BBR treatments
  exposure (AUC) of metabolite as share of the exposure of BBR: 11%
[1]; [5]
  AUC ± SE: 362.8 ± 18.7 h ∗ ng/g
[1]; [6]
  AUC ± SE: 489.2 ± 59.2^∗ h ∗ ng/g
[1]; [7]
  exposure (AUC) of metabolite as share of the exposure of BBR: 11%
[1]; [8]
  Cmax: 184 ± 38.4 ng/g
  half-life: 6 h
  Tmax: 2 h
[1]; [9]
  Cmax: 89.4 ± 15.6 ng/g
  half-life: 9.5 h
  Tmax: 2 h

## CN(C)C(=N)N=C(N)N [metformin]
GK rats [2]
  decrease in the AUC of blood glucose in OGTT vs vehicle: 11.3%
  decrease of blood glucose levels in OGTT at 30 min vs vehicle: 30%
GK rats [3]
  FBG levels compared with the vehicle group (in words): significantly decreased
  NFBG levels compared with the vehicle group (in words): did not significantly decrease
[4]
  effect on organ coefficients (liver and kidney) vs vehicle: no effect

## Cc1ncc2n1-c1ccc(Cl)cc1C(c1ccccc1F)=NC2 [midazolam]
Primary rat hepatocytes; midazolam 20 μM, TB-2 1 μM
  metabolism after incubation (in words): significantly metabolized

Reference: publication PMC6353801, “Enhanced Anti-diabetic Effect of Berberine Combined With Timosaponin B2 in Goto-Kakizaki Rats, Associated With Increased Variety and Exposure of Effective Substances Through Intestinal Absorption” (Frontiers in Pharmacology, 2019)
